# Measured values reported in ChEMBL document CHEMBL4417631, “Oral peptide inhibitors of interleukin-23 receptor and their use to treat inflammatory bowel diseases” (2017).
# Where a SMILES comes first, the peptide text is derived from it. Bridges are numbered along the chain shown (N, C = ends). Roman numbers before positions name the chains, in order.
# Molecular target: T1, Interleukin-23 receptor (Homo sapiens, UniProt Q5VWK5)
# T1 sequence (Q5VWK5 whole entry): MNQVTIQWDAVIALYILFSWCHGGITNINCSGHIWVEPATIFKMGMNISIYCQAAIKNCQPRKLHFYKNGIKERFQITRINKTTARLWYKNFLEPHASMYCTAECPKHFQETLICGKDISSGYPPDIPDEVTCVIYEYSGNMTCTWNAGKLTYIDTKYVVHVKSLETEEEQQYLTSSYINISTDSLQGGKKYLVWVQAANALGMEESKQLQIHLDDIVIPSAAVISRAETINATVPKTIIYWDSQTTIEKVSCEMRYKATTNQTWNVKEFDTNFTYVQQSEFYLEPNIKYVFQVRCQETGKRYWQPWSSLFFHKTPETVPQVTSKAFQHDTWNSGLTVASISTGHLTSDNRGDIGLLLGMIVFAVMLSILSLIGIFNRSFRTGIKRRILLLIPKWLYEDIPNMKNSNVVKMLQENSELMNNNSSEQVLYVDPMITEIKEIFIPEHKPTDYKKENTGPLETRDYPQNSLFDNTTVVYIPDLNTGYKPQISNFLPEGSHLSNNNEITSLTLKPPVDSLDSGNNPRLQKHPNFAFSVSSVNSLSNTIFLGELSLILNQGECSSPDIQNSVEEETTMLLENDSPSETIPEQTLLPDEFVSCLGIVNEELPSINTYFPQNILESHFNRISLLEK
# Assay: Inhibition of interleukin-23 binding to human interleukin-23 receptor incubated for 2 hrs by competitive binding ELISA
row,SMILES,IC50 [nM]
1,COc1ccc(C[C@H](NC(=O)[C@@H](NC(=O)[C@H](CCC(N)=O)NC(=O)[C@H](Cc2c[nH]c3ccccc23)NC(=O)[C@@H](NC(=O)[C@H](CCC(N)=O)NC(=O)[C@@H](NC(=O)Cc2ccc(-c3ccccc3)cc2)C(C)(C)S)[C@@H](C)O)C(C)(C)S)C(=O)N[C@@H](Cc2ccc3ccccc3c2)C(=O)N[C@@](C)(CCCCN)C(=O)N[C@@H](CCCCNC(C)=O)C(=O)N[C@@H](CC(N)=O)C(=O)NCC(N)=O)cc1,100 to 1000
2,CC(C)[C@H](NC(=O)[C@H](Cc1c[nH]c2ccccc12)NC(=O)[C@H](CC(N)=O)NC(=O)[C@H](CO)NC(=O)[C@@H](N)CS)C(=O)N[C@@H](CS)C(=O)N[C@@H](Cc1ccc(O)cc1)C(=O)N[C@@H](Cc1c[nH]c2ccccc12)C(=O)N[C@@H](Cc1cnc[nH]1)C(=O)N[C@H](C(=O)N[C@@H](Cc1ccc(O)cc1)C(=O)NCC(N)=O)[C@@H](C)O (H-CSNWVCYWHTYG-NH2),< 500
3,CC(C)[C@H](NC(=O)[C@H](Cc1c[nH]c2ccccc12)NC(=O)[C@H](CC(=O)O)NC(=O)[C@H](C)NC(=O)[C@@H](N)CS)C(=O)N[C@@H](CS)C(=O)N[C@@H](Cc1ccc(O)cc1)C(=O)N[C@@H](C)C(=O)N[C@@H](Cc1cnc[nH]1)C(=O)N[C@H](C(=O)N[C@@H](Cc1ccccc1)C(=O)NCC(N)=O)[C@@H](C)O,> 1000
4,CC(=O)N[C@@H](CS)C(=O)N[C@@H](CCC(N)=O)C(=O)N[C@H](C(=O)N[C@@H](Cc1c[nH]c2ccccc12)C(=O)N[C@@H](CCC(N)=O)C(=O)N[C@@H](CS)C(=O)N[C@@H](Cc1ccc(O)cc1)C(=O)N[C@@H](Cc1c[nH]c2ccccc12)C(=O)N[C@@H](CCCNC(=N)N)C(=O)N[C@@H](CCCNC(=N)N)C(=O)N[C@@H](CC(N)=O)C(=O)NCC(=O)NCCOCC(=O)N[C@H](CCCCN)C(N)=O)[C@@H](C)O,< 500
5,CC(=O)N[C@@H](CS)C(=O)N[C@@H](CCC(N)=O)C(=O)N[C@H](C(=O)N[C@@H](Cc1c[nH]c2ccccc12)C(=O)N[C@@H](CCC(N)=O)C(=O)N[C@@H](CS)C(=O)N[C@@](C)(Cc1ccccc1)C(=O)N[C@@H](Cc1c[nH]c2ccccc12)C(=O)N[C@@H](CCC(C)C)C(=O)N[C@@H](CCC(=O)O)C(=O)N[C@@H](CC(N)=O)C(=O)NCC(N)=O)[C@@H](C)O,30000
6,CC(=O)N[C@@H](CS)C(=O)N[C@@H](C)C(=O)N[C@@H](CC(=O)O)C(=O)N[C@@H](Cc1c[nH]c2ccccc12)C(=O)N[C@H](C(=O)N[C@@H](CS)C(=O)N[C@@H](Cc1ccc(O)cc1)C(=O)N[C@@H](Cc1c[nH]c2ccccc12)C(=O)N[C@@H](Cc1cnc[nH]1)C(=O)N[C@H](C(=O)N[C@@H](Cc1ccccc1)C(=O)NCC(=O)N[C@@H](C)C(=O)N1CCC[C@H]1C(=O)N[C@H](CCCCN)C(=O)O)[C@@H](C)O)C(C)C,100 to 1000
7,CC(C)[C@H](NC(=O)[C@H](Cc1c[nH]c2ccccc12)NC(=O)[C@H](CC(=O)O)NC(=O)[C@H](C)NC(=O)[C@@H](N)CS)C(=O)N[C@@H](CS)C(=O)N[C@@H](Cc1ccc(O)cc1)C(=O)N[C@@H](Cc1cccc2ccccc12)C(=O)N[C@@H](Cc1cnc[nH]1)C(=O)N(C)CC(=O)N[C@@H](Cc1ccccc1)C(=O)O,> 1000
8,CC(=O)N[C@@H](CS)C(=O)N[C@@H](C)C(=O)N[C@@H](CC(=O)O)C(=O)N[C@@H](Cc1c[nH]c2ccccc12)C(=O)N[C@H](C(=O)N[C@@H](CS)C(=O)N[C@@H](Cc1ccc(O)cc1)C(=O)N[C@@H](Cc1c[nH]c2ccccc12)C(=O)N[C@@H](Cc1cnc[nH]1)C(=O)N[C@H](C(=O)N[C@@H](Cc1ccccc1)C(=O)NCC(=O)NCCOCC(=O)N[C@H](CCCCNC(=O)COCC(=O)NCCCC[C@@H](NC(=O)COCCNC(=O)CNC(=O)[C@H](Cc1ccccc1)NC(=O)[C@@H](NC(=O)[C@H](Cc1cnc[nH]1)NC(=O)[C@H](Cc1c[nH]c2ccccc12)NC(=O)[C@H](Cc1ccc(O)cc1)NC(=O)[C@H](CS)NC(=O)[C@@H](NC(=O)[C@H](Cc1c[nH]c2ccccc12)NC(=O)[C@H](CC(=O)O)NC(=O)[C@H](C)NC(=O)[C@H](CS)NC(C)=O)C(C)C)[C@@H](C)O)C(=O)O)C(=O)O)[C@@H](C)O)C(C)C,25 to 100
9,C[C@@H](O)[C@H](NC(=O)[C@@H](N)CS)C(=O)N[C@@H](CC(=O)O)C(=O)N[C@@H](Cc1c[nH]c2ccccc12)C(=O)N[C@@H](CCCCN)C(=O)N[C@@H](CS)C(=O)N[C@@H](Cc1ccc(O)cc1)C(=O)N[C@@H](Cc1c[nH]c2ccccc12)C(=O)N[C@@H](Cc1cnc[nH]1)C(=O)N[C@@H](CCC(=O)O)C(=O)N[C@@H](Cc1ccccc1)C(=O)NCC(N)=O (H-CTDWKCYWHEFG-NH2),500 to 1000
10,CC(=O)N[C@@H](CS)C(=O)N[C@@H](C)C(=O)N[C@@H](CC(=O)O)C(=O)N[C@@H](Cc1c[nH]c2ccccc12)C(=O)N[C@H](C(=O)N[C@@H](CS)C(=O)N[C@@H](Cc1ccc(O)cc1)C(=O)N[C@@H](Cc1c[nH]c2ccccc12)C(=O)N[C@@H](Cc1cnc[nH]1)C(=O)N[C@H](C(=O)N[C@@H](Cc1ccccc1)C(=O)NCC(=O)NCCC(=O)N[C@H](CCCCNC(=O)COCC(=O)NCCCC[C@@H](NC(=O)CCNC(=O)CNC(=O)[C@H](Cc1ccccc1)NC(=O)[C@@H](NC(=O)[C@H](Cc1cnc[nH]1)NC(=O)[C@H](Cc1c[nH]c2ccccc12)NC(=O)[C@H](Cc1ccc(O)cc1)NC(=O)[C@H](CS)NC(=O)[C@@H](NC(=O)[C@H](Cc1c[nH]c2ccccc12)NC(=O)[C@H](CC(=O)O)NC(=O)[C@H](C)NC(=O)[C@H](CS)NC(C)=O)C(C)C)[C@@H](C)O)C(=O)O)C(=O)O)[C@@H](C)O)C(C)C,25 to 100
11,CC(=O)N[C@@H](CS)C(=O)N[C@@H](C)C(=O)N[C@@H](CC(=O)O)C(=O)N[C@@H](Cc1c[nH]c2ccccc12)C(=O)N[C@H](C(=O)N[C@@H](CS)C(=O)N[C@@H](Cc1ccc(O)cc1)C(=O)N[C@@H](Cc1c[nH]c2ccccc12)C(=O)N[C@@H](Cc1cnc[nH]1)C(=O)N[C@H](C(=O)N[C@@H](Cc1ccccc1)C(=O)NCC(=O)N1CCC[C@H]1C(=O)N[C@H](CCCCN)C(=O)O)[C@@H](C)O)C(C)C,< 500
12,CC(C)[C@H](NC(=O)[C@H](Cc1ccc(-c2ccccc2)cc1)NC(=O)[C@H](CC(=O)O)NC(=O)[C@H](C)NC(=O)[C@@H](N)CS)C(=O)N[C@@H](CS)C(=O)N[C@@H](Cc1ccc(O)cc1)C(=O)N[C@@H](Cc1c[nH]c2ccccc12)C(=O)N[C@@H](Cc1cnc[nH]1)C(=O)N[C@H](C(=O)N[C@@H](Cc1ccccc1)C(=O)NCC(N)=O)[C@@H](C)O,> 1000
13,CC(=O)N[C@@H](CS)C(=O)N[C@@H](C)C(=O)N[C@@H](CC(=O)O)C(=O)N[C@@H](Cc1c[nH]c2ccccc12)C(=O)N[C@H](C(=O)N[C@@H](CS)C(=O)N[C@@H](Cc1ccc(O)cc1)C(=O)N[C@@H](Cc1c[nH]c2ccccc12)C(=O)N[C@@H](Cc1cnc[nH]1)C(=O)N[C@H](C(=O)N[C@@H](Cc1ccccc1)C(=O)N[C@@H](CC(=O)O)C(=O)N[C@@H](CCCCNC(=O)COCC(=O)NCCCC[C@H](NC(=O)[C@H](CC(=O)O)NC(=O)[C@H](Cc1ccccc1)NC(=O)[C@@H](NC(=O)[C@H](Cc1cnc[nH]1)NC(=O)[C@H](Cc1c[nH]c2ccccc12)NC(=O)[C@H](Cc1ccc(O)cc1)NC(=O)[C@H](CS)NC(=O)[C@@H](NC(=O)[C@H](Cc1c[nH]c2ccccc12)NC(=O)[C@H](CC(=O)O)NC(=O)[C@H](C)NC(=O)[C@H](CS)NC(C)=O)C(C)C)[C@@H](C)O)C(=O)O)C(=O)O)[C@@H](C)O)C(C)C,> 10000
14,CC(=O)N[C@@H](CS)C(=O)N[C@@H](C)C(=O)N[C@@H](CC(=O)O)C(=O)N[C@@H](Cc1c[nH]c2ccccc12)C(=O)N[C@H](C(=O)N[C@@H](CS)C(=O)N[C@@H](Cc1ccc(O)cc1)C(=O)N[C@@H](Cc1c[nH]c2ccccc12)C(=O)N[C@@H](Cc1cnc[nH]1)C(=O)N[C@H](C(=O)N[C@@H](Cc1ccccc1)C(=O)NCC(=O)NCCC(=O)N[C@H](CCCCN)C(=O)O)[C@@H](C)O)C(C)C,< 500
15,CC(=O)N[C@@H](CS)C(=O)N[C@@H](C)C(=O)N[C@@H](CC(=O)O)C(=O)N[C@@H](Cc1c[nH]c2ccccc12)C(=O)N[C@H](C(=O)N[C@@H](CS)C(=O)N[C@@H](Cc1ccc(O)cc1)C(=O)N[C@@H](Cc1cccc2ccccc12)C(=O)N[C@@H](Cc1cnc[nH]1)C(=O)NC(C)(C)C(=O)N[C@H](Cc1ccccc1)C(=O)NCC(N)=O)C(C)C,> 1000
16,C[C@@H](O)[C@H](NC(=O)[C@@H]1CCCN1C(=O)[C@@H](N)Cc1ccccc1)C(=O)N[C@@H](Cc1c[nH]c2ccccc12)C(=O)N[C@@H](CCC(=O)O)C(=O)N[C@@H](Cc1c[nH]c2ccccc12)C(=O)N[C@@H](Cc1ccc(O)cc1)C(=O)N[C@@H](Cc1c[nH]c2ccccc12)C(=O)N[C@@H](CSSC[C@H](NC(=O)[C@H](Cc1c[nH]c2ccccc12)NC(=O)[C@H](Cc1ccc(O)cc1)NC(=O)[C@H](Cc1c[nH]c2ccccc12)NC(=O)[C@H](CCC(=O)O)NC(=O)[C@H](Cc1c[nH]c2ccccc12)NC(=O)[C@@H](NC(=O)[C@@H]1CCCN1C(=O)[C@@H](N)Cc1ccccc1)[C@@H](C)O)C(=O)N[C@@H](CC(N)=O)C(=O)N[C@@H](CCCNC(=N)N)C(=O)N[C@@H](CC(=O)O)C(N)=O)C(=O)N[C@@H](CC(N)=O)C(=O)N[C@@H](CCCNC(=N)N)C(=O)N[C@@H](CC(=O)O)C(N)=O (I: H-FPTWEWYWCNRD-NH2 / II: H-FPTWEWYWCNRD-NH2; disulfide I:9-II:9),1000 to 10000
17,CC(=O)N[C@@H](CS)C(=O)N[C@@H](C)C(=O)N[C@@H](CC(=O)O)C(=O)N[C@@H](Cc1c[nH]c2ccccc12)C(=O)N[C@H](C(=O)N[C@@H](CS)C(=O)N[C@@H](Cc1ccc(O)cc1)C(N)=O)C(C)C,> 30000
